From patent US10759793B2, “2-(pyrazolopyridin-3-yl)pyrimidine derivatives as JAK inhibitors” (ALMIRALL, S.A., priority 2015, dated 2020) come the findings set out here.

What all share (type): biochemical
One assay has as its target JAK3 (Homo sapiens (Human), UniProt P52333). Description: In vitro JAK kinase assay (TR-FRET), JAK3. The conditions noted are these: catalytic domain aa 795-1124, GST-fusion; ATP 0.6 μM; peptide 140 nM; 30 minutes at room temperature. The method, then:
(§1) Compounds were screened for their ability to inhibit JAK1, JAK2 and JAK3 using the assays as indicated below. […] The enzymatic activity was assayed using as substrate a biotinylated peptide, poly (GT)-Biotin (CisBio). […] The degree of phosphorylation was detected by TR-FRET (time-resolved fluorescence energy transfer). […] The enzymatic reactions took place for 30 minutes at room temperature. […] Incubate for 3 h and read on Victor 2V spectrofluorometer (Perkin Elmer) set to read fluorescence resonance energy transfer.

The target of the next assay is JAK1 (Homo sapiens (Human), UniProt P23458). Briefly: In vitro JAK kinase assay (TR-FRET), JAK1. The conditions noted are these: catalytic domain aa 850-1154, GST-fusion; ATP 3 μM; peptide 60 nM; 30 minutes at room temperature. The method, then: as §1
A further assay has as its target JAK2 (Homo sapiens (Human), UniProt O60674). Description: In vitro JAK kinase assay (TR-FRET), JAK2. Conditions: catalytic domain aa 826-1132, GST-fusion; ATP 0.2 μM; peptide 20 nM; 30 minutes at room temperature. As to the method: as §1

Each structure is given as a SMILES string.

Sequence of JAK1 (P23458 850-1154): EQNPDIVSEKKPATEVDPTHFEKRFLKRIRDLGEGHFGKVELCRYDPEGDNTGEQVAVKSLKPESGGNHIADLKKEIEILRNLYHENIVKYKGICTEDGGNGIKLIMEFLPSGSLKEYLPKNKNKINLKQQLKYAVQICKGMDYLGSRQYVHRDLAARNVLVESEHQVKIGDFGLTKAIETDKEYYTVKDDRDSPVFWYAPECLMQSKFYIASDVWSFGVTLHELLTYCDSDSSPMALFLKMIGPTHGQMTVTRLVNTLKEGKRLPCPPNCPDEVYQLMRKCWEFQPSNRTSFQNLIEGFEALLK
Sequence of JAK2 (O60674 826-1132): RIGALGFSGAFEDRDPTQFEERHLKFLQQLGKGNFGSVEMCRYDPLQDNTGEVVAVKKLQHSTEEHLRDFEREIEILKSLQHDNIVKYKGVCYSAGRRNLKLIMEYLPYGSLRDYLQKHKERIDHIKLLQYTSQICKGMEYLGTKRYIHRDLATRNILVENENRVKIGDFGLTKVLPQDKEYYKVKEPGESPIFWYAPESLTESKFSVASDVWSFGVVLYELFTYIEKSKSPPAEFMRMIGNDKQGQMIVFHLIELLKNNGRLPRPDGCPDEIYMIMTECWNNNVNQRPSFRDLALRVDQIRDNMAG
Sequence of JAK3 (P52333 795-1124): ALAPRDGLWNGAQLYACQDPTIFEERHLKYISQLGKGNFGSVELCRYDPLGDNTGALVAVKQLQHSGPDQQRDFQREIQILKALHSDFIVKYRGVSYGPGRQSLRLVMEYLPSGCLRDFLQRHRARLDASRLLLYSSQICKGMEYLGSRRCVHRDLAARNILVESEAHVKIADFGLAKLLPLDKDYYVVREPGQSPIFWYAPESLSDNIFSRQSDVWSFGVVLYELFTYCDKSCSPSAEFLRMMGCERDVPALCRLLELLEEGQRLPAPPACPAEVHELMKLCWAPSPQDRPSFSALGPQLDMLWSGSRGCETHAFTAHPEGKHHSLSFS

Turning to `N#CC[C@H]1CC[C@H](Nc2nc(-c3cnn4ccccc34)nc(N3CCC(O)CC3)c2F)CC1` [Example 1, (Trans-4-{[5-fluoro-6-(4-hydroxypiperidin-1-yl)-2-pyrazolo[1,5-a]pyridin-3-ylpyrimidin-4-yl]amino}cyclohexyl)acetonitrile], the figures for the IC50 against JAK3, on JAK1 and against JAK2 were 3 nM, 12 nM and 0.5 nM, respectively.
The matching figures for `N#CC[C@H]1CC[C@H](Nc2nc(-c3cnn4ccccc34)nc(N3CCC(N)CC3)c2F)CC1` [Example 2, (Trans-4-{[6-(4-aminopiperidin-1-yl)-5-fluoro-2-pyrazolo[1,5-a]pyridin-3-ylpyrimidin-4-yl]amino}cyclohexyl)acetonitrile]: 4 nM, 82 nM and 1 nM.
Taken in the same sequence, the figures for `N#CC[C@H]1CC[C@H](Nc2nc(-c3cnn4ccccc34)nc(N3CCNCC3)c2F)CC1` [Example 3, {Trans-4-[(5-fluoro-6-piperazin-1-yl-2-pyrazolo[1,5-a]pyridin-3-ylpyrimidin-4-yl)amino]cyclohexyl}acetonitrile] were 4 nM, 150 nM and 0.8 nM.
The matching figures for `CN(C)C1CCN(c2nc(-c3cnn4ccccc34)nc(N[C@H]3CC[C@H](CC#N)CC3)c2F)CC1` [Example 4, [Trans-4-({6-[4-(dimethylamino)piperidin-1-yl]-5-fluoro-2-pyrazolo[1,5-a]pyridin-3-ylpyrimidin-4-yl}amino)cyclohexyl]acetonitrile]: 4 nM, 220 nM and 1 nM.
As to `N#CC[C@H]1CC[C@H](Nc2nc(-c3cnn4ccccc34)nc(OCCO)c2F)CC1` [Example 5, (Trans-4-{[5-fluoro-6-(2-hydroxyethoxy)-2-pyrazolo[1,5-a]pyridin-3-ylpyrimidin-4-yl]amino}cyclohexyl)acetonitrile], the IC50 against JAK3 worked out at 2 nM; on JAK1, 9 nM; against JAK2 it was 0.5 nM.
Regarding `N#CC[C@H]1CC[C@H](Nc2nc(-c3cnn4ccccc34)nc(OC[C@@H](O)CO)c2F)CC1` [Example 6, {Trans-4-[(6-{[(2S)-2,3-dihydroxypropyl]oxy}-5-fluoro-2-pyrazolo[1,5-a]pyridin-3-ylpyrimidin-4-yl)amino]cyclohexyl}acetonitrile], the values for the IC50 against JAK3, at JAK1 and at JAK2 were 3 nM, 15 nM and 0.7 nM, respectively.
The matching figures for `N#CC[C@H]1CC[C@H](Nc2nc(-c3cnn4ccccc34)nc(OC[C@H](O)CO)c2F)CC1` [Example 7, {Trans-4-[(6-{[(2R)-2,3-dihydroxypropyl]oxy}-5-fluoro-2-pyrazolo[1,5-a]pyridin-3-ylpyrimidin-4-yl)amino]cyclohexyl}acetonitrile]: 2 nM, 10 nM and 0.5 nM.
In the case of `CN(C)CCOc1nc(-c2cnn3ccccc23)nc(N[C@H]2CC[C@H](CC#N)CC2)c1F` [Example 9, [trans-4-({6-[2-(dimethylamino)ethoxy]-5-fluoro-2-pyrazolo[1,5-a]pyridin-3-ylpyrimidin-4-yl}amino)cyclohexyl]acetonitrile], the IC50 on JAK3 was determined as 3 nM; on JAK1, 85 nM; against JAK2, 0.7 nM.
Taken in the same sequence, the figures for `C[C@H](Nc1nc(-c2cnn3ccccc23)nc(N2CCC(N)CC2)c1F)c1ccc(F)cn1` [Example 11, 6-(4-Aminopiperidin-1-yl)-5-fluoro-N-[(1S)-1-(5-fluoropyridin-2-yl)ethyl]-2-pyrazolo[1,5-a]pyridin-3-ylpyrimidin-4-amine] were 3 nM, 40 nM and 1 nM.
Taken in the same sequence, the figures for `C[C@H](Nc1nc(-c2cnn3ccccc23)nc(OCCO)c1F)c1ncc(F)cn1` [Example 12, 2-[(5-Fluoro-6-{[(1S)-1-(5-fluoropyrimidin-2-yl)ethyl]amino}-2-pyrazolo[1,5-a]pyridin-3-ylpyrimidin-4-yl)oxy]ethanol] were 4 nM, 4 nM and 0.5 nM.
For the molecule `C[C@H](Nc1nc(-c2cnn3ccccc23)nc(OC[C@@H](O)CO)c1F)c1ncc(F)cn1` [Example 13, (2S)-3-[(5-fluoro-6-{[(1S)-1-(5-fluoropyrimidin-2-yl)ethyl]amino}-2-pyrazolo[1,5-a]pyridin-3-ylpyrimidin-4-yl)oxy]propane-1,2-diol], the figures for the IC50 at JAK3, at JAK1 and against JAK2 were 4 nM, 4 nM and 1 nM, respectively.
With `N#CCC(=O)N1CCC[C@@H](Nc2nc(-c3cnn4ccccc34)nc(OCCO)c2F)C1` [Example 14, 3-((3R)-3-{[5-fluoro-6-(2-hydroxyethoxy)-2-pyrazolo[1,5-a]pyridin-3-ylpyrimidin-4-yl]amino}piperidin-1-yl)-3-oxopropanenitrile], the half-inhibitory concentration (IC50) on JAK3 was 1 nM; on JAK1, 1 nM; against JAK2 it was 0.5 nM.
With `CCCCOc1nc(-c2cnn3ccccc23)nc(N[C@@H]2CCCN(C(=O)CC#N)C2)c1F` [Example 15, 3-{(3R)-3-[(6-butoxy-5-fluoro-2-pyrazolo[1,5-a]pyridin-3-ylpyrimidin-4-yl)amino]piperidin-1-yl}-3-oxopropanenitrile], the IC50 at JAK3 came to 2 nM; against JAK1 it was 13 nM; on JAK2 it was 1 nM.
For the molecule `CCOCCOc1nc(-c2cnn3ccccc23)nc(N[C@@H]2CCCN(C(=O)CC#N)C2)c1F` [Example 16, 3-((3R)-3-{[6-(2-ethoxyethoxy)-5-fluoro-2-pyrazolo[1,5-a]pyridin-3-ylpyrimidin-4-yl]amino}piperidin-1-yl)-3-oxopropanenitrile], the IC50 was determined as 1 nM on JAK3, 4 nM at JAK1 and 0.7 nM against JAK2.
The matching figures for `N#CCC(=O)N1CCC[C@@H](Nc2nc(-c3cnn4ccccc34)nc(-c3ccc(CO)cc3)c2F)C1` [Example 17, 3-[(3R)-3-({5-Fluoro-6-[4-(hydroxymethyl)phenyl]-2-pyrazolo[1,5-a]pyridin-3-ylpyrimidin-4-yl}amino)piperidin-1-yl]-3-oxopropanenitrile]: 1 nM, 2 nM and 0.6 nM.
The matching figures for `N#CCC(=O)N1CCC[C@@H](Nc2nc(-c3cnn4ccccc34)nc(-c3ccc(N)nc3)c2F)C1` [Example 18, 3-((3R)-3-{[6-(6-Aminopyridin-3-yl)-5-fluoro-2-pyrazolo[1,5-a]pyridin-3-ylpyrimidin-4-yl]amino}piperidin-1-yl)-3-oxopropanenitrile]: 2 nM, 1 nM and 0.6 nM.
Taken in the same sequence, the figures for `COc1ccc(-c2nc(-c3cnn4ccccc34)nc(N[C@@H]3CCCN(C(=O)CC#N)C3)c2F)cn1` [Example 19, 3-((3R)-3-{[5-fluoro-6-(6-methoxypyridin-3-yl)-2-pyrazolo[1,5-a]pyridin-3-ylpyrimidin-4-yl]amino}piperidin-1-yl)-3-oxopropanenitrile] were 2 nM, 2 nM and 0.3 nM.
With `Cc1cc(-c2nc(-c3cnn4ccccc34)nc(N[C@@H]3CCCN(C(=O)CC#N)C3)c2F)ccn1` [Example 20, 3-((3R)-3-{[5-fluoro-6-(2-methylpyridin-4-yl)-2-pyrazolo[1,5-a]pyridin-3-ylpyrimidin-4-yl]amino}piperidin-1-yl)-3-oxopropanenitrile], the IC50 against JAK3 stood at 1 nM; against JAK1, 1 nM; on JAK2, 0.5 nM.
